The values that follow come from patent US11668699B2, “Compositions and methods for determining mechanical properties of cells” (Arizona Board of Regents on Behalf of the University of …, priority 2016, dated 2023).

Assay [1] concerns platelets. The assay is described as follows: Platelet activation assay: cell surface expression of P-selectin by immunofluorescence. In kind it is cell-based, human. Conditions: 0.125 μM thrombin, 10 mins, 37° C.; mean ± standard error, >70 platelets. The source says:
(§1) Platelet activation level was quantified via cell surface expression of P-selectin utilizing immunohistochemical staining (Hsulin, S. C., et al., A Platelet Membrane-Protein Expressed during Platelet Activation and Secretion-Studies Using a Monoclonal Antibody Specific for Thrombin-Activated Platelets. Journal of Biological Chemistry, 1984. 259(14): p. 9121-9126; Berman, C. L., et al., A Platelet Alpha Granule Membrane-Protein That Is Associated with the Plasma-Membrane after Activation-Characterization and Subcellular-Localization of Platelet Activation Dependent Granule-External Membrane-Protein. Journal of Clinical Investigation, 1986. 78(1): p. […] Platelets were paraformaldehyde fixed (3%, 20 mins) rinsed and incubated (30 min., 37° C.) with FITC Mouse Anti-Human CD62P (50 μl, 1:5 (v/v) dilution in PBS, BD Biosciences, CA) and imaged using fluorescence microscopy. Fluorescence intensity levels were measured following background subtraction. […] Activation of the positive and negative controls was also quantified via the chemically modified prothrombin-based platelet activation state (PAS) assay (Jesty, J. and D. Bluestein, Acetylated prothrombin as a substrate in the measurement of the procoagulant activity of platelets: Elimination of the feedback activation of platelets by thrombin. Analytical Biochemistry, 1999. 272(1): p. 64-70.).

Assay [2] relates to platelets. The assay is described as follows: Chemically modified prothrombin-based platelet activation state (PAS) assay. The format is cell-based, human. Particulars: 0.125 μM thrombin, 10 mins, 37° C.
From the text: as §1

In assay [3] the test system is platelets. Particulars: for Platelet deformation along the axis of maximum extension, normalized to the original length: platelets treated with 0.4% paraformaldehyde, 1 MHz.
Method: Gel filtered platelets were prepared as previously described, from whole blood drawn from aspirin and non-steroidal anti-inflammatory medication free volunteers providing informed consent (Sheriff, J., et al., High-shear stress sensitizes platelets to subsequent low-shear conditions. Ann Biomed Eng, 2010. 38(4): p. 1442-50).
A 127 μm-thick hollow polymer spacer was placed on top of the chip to create a fluid chamber and the chip was covered with a coverslip for microscopic observation. All chip glass surfaces were coated with Sigmacote (Sigma-Aldrich, MO, USA) and rinsed with D.I. water to prevent surface-induced platelet activation.
To visualize platelets they were first exposed to Alexa Fluor 594 conjugated wheat germ agglutinin (1 μg/mL, 10 mins, 37° C., Invitrogen, CA). Platelets were then diluted 100-200 fold (v/v) in isotonic buffer (Pommer, M. S., et al., Dielectrophoretic separation of platelets from diluted whole blood in microfluidic channels. Electrophoresis, 2008. 29(6): p. 1213-8) containing 8.5% w/v sucrose and 0.3% w/v dextrose until the medium conductivity reached ˜1500/cm. as measured by a Jenway 4520 conductivity meter (Jenway, Staffordshire, UK). 50 μl of the diluted platelets sample were pipetted into the fluid chamber of the microelectrode chip. An alternating electric current in a sine wave pattern was generated across the microelectrodes using a function generator (332220A, Agilent, CA,) connected to a wideband power amplifier (7600M, Krohn-hite, MA). The amplitude of applied voltage was monitor via digital oscilloscope (GDS-1102, GW Instek, CA). The sample chip was imaged via fluorescence microscopy (Eclipse E800, 100× oil, Nikon, N.Y.), images were captured via CCD (Sensicam 12bt CCD camera, Cooke Corporation, MI), processed and quantified using NIH Image J software.
In the studies, platelet deformations under sequential increase of applied voltage, from 0 to 90Vpk-pk at 15V steps, were measured at a frequency of 1 MHz and the result is shown in FIG. 4A. […] Images of deformed platelets were captured in a duration ˜5s.

Read-outs that look alike come from different tables or passages of the source.

As for thrombin, the “P-selectin expression, averaged fluorescence intensity level” value in assay [1] was found to be 1526.15±75.04. Further, the “Platelet activation level (PAS assay)” value in assay [2] is reported as 24.7%.
In the case of paraformaldehyde, the “Decrease in deformation compared to untreated platelets” value in assay [3] (0.4% paraformaldehyde, 90Vpk-pk applied voltage, p-value=0.0002) was determined as 2.75 times. For the same substance, the “Young's modulus of platelets (slope of linear fitted stress-deformation curve)” value in assay [3] (platelets treated by 0.4% paraformaldehyde, stress from Maxwell stress tensor simulation) was 8.5+/−1.5 kPa. Moreover, the “Platelet deformation along the axis of maximum extension, normalized to the original length” value in assay [3] (applied voltage 15 V) worked out at 0.73±1.33%; in assay [3] (applied voltage 90 V), 4.90±1.98%.
